“Also recorded” adds a separate entry of the source.
What was measured:
[1] = tested on: anti-apoptotic and pro-apoptotic Bcl-2 family proteins; experiment: Immunoblotting of Bcl-2 family proteins, TH-302, bortezomib and combination; type: cell-based
Description: To further determine the mechanism of induction of apoptosis by this combination, the effect of TH-302, bortezomib and the combination on anti-apoptotic and pro-apoptotic Bcl-2 family proteins using immunoblotting was tested.

[2] = tested on: human and murine multiple myeloma cells; experiment: Flow cytometry analysis of apoptosis / toxicity in multiple myeloma cells; type: cell-based; settings: also RPMI-8226, 5T33vt, MMS1, Karpas-707 cells
Description: (§1) By employing a set of defined gas mixtures (0%, 1%, 1.25%, 1.5%, 2%, 3%, 20% O2) for drug treatment of the multiple myeloma cells, the oxygen concentration dependent activation of TH-302 was tested in RPMI-8226, LP-1, MMS1 and 5T33vt multiple myeloma cells. […] As the O2 concentration was reduced to 0%, the fraction of apoptotic cells increased to about 70-75%.

[3] = tested on: cyclin D1/2/3, CDK4/6, p21cip-1, p27kip-1, pRb, CDK2 in RPMI-8226, LP-1, MMS1 and Karpas-707 multiple myeloma cells; experiment: Western blotting of cell cycle machinery; type: cell-based, human
[4] = tested on: HIF1α in RPMI-8226 cells; experiment: HIF1α accumulation/expression in hypoxic cells; type: cell-based, human
Description: (§2) TH-302 (5 μM) decreased the accumulation of HIF1α in hypoxic RPMI-8226 cells. VEGFa secretion was reduced by TH-302 in 5T33vt cells. *p<0.05, **p<0.01, ***p<0.001, compared to 20% O2 (n=3).
as §1

[5] = tested on: Karpas-707, LP-1, MMS1, and RPMI-8226 cells; experiment: Cell cycle analysis in multiple myeloma cell lines under hypoxia; type: cell-based, human; settings: hypoxic conditions; Karpas-707, LP-1, MMS1, RPMI-8226 cells
[6] = tested on: LP-1 cells; experiment: Apoptosis in LP-1 cells; type: cell-based, human
Description: as §2, §1

[7] = tested on: AML; experiment: Clinical administration of TH-302 in advanced leukemia, AML patients; type: in vivo
Description: (§3) Clinical investigations were conducted to determine the safety, tolerability and clinically relevant disease responses of TH-302 in patients with acute leukemias, advanced phase chronic myelogenous leukemia (CML), high risk myelodysplastic syndromes, advanced myelofibrosis or relapsed/refractory chronic lymphocytic leukemia (CLL). TH-302 was administered as a 30 to 60 minute intravenous infusion daily for 5 days followed by 2 weeks off therapy. As needed, the 5 days of dosing could be spread out over 8 days. Patients who successfully completed a 3-week treatment cycle without evidence of significant treatment-related toxicity or progressive disease were continued on treatment and could receive treatment for up to six cycles.
(§4) Twenty-one patients have been treated in the study at TH-302 daily doses ranging from 120 mg/m^2 to 460 mg/m^2. All subjects had either AML or ALL and had generally received multiple prior therapies for their disease prior to enrolling for the study.

[8] = tested on: ALL; experiment: Clinical administration of TH-302 in advanced leukemia, ALL patients; type: in vivo; settings: one ALL patient
Description: as §3, §4

[9] = tested on: 5T33MMvv mouse; experiment: 5T33MMvv mouse multiple myeloma model, prophylactic treatment for 3 weeks; type: in vivo; settings: for multiple myeloma cell apoptosis vs vehicle-treated mice: bone marrow
Description: 5T33MMvv mice were treated prophylactically with TH-302 for 3 weeks. From day 1, the following were observed. […] Therefore, the cancer cytotoxic effect of TH-302 was associated with the hypoxic nature of multiple myeloma cells in the bone marrow.

[10] = tested on: BCL-2, BCL-xL, cleaved caspase-3, 8, 9 and PARP; experiment: Western blotting of apoptosis proteins; type: cell-based
[11] = tested on: naive mice; experiment: Toxicity in TH-302 treated naive mice; type: in vivo, mouse; settings: compared to vehicle-treated naive mice
[12] = tested on: VEGFa secretion in 5T33vt cells; experiment: VEGFa secretion; type: cell-based, murine
Description: as §2, §1

[13] = tested on: RPMI-8226, LP-1, MMS1 and 5T33vt multiple myeloma cells; experiment: Oxygen concentration dependent activation of TH-302 (defined gas mixtures); type: cell-based, human and murine
Description: as §1

[14] = tested on: 5T33vt cells; experiment: Cell cycle analysis in 5T33vt cells; type: cell-based, murine; settings: hypoxia selective manner

SMILES: CC(C)C[C@H](NC(=O)[C@H](Cc1ccccc1)NC(=O)c1cnccn1)B(O)O [bortezomib, reference compound]
- anti-apoptotic Mcl-1 [1]: accumulated
- expression of anti-apoptotic Bcl-2 and Bcl-xL [1]: decreased
- pro-apoptotic BH-3 member Noxa and cleavage of BID [1]: induced

SMILES: Cn1c(COP(=O)(NCCBr)NCCBr)cnc1[N+](=O)[O-] [TH-302]
- apoptosis ([2]; hypoxic conditions, flow cytometry): induced dose-dependent apoptosis
- toxicity in normoxic conditions ([2]; normoxic conditions, even at high concentrations): very low toxicity
- CDK2 expression [3]: remained undisturbed
- cyclin D1/2/3, CDK4/6, p21, p27 and pRb expression [3]: down-regulating
- accumulation of HIF1α ([4]; hypoxic RPMI-8226 cells, TH-302 5 μM): decreased
- expression of HIF1α ([4]; hypoxic condition, similar in 5T33vt, LP-1, Karpas-707 cells): reduced
- cell cycle arrest [5]: induced Go/G1 cell cycle arrest
- apoptosis ([6]; LP-1 cells under hypoxia, dose dependence): triggered specific apoptosis in a dose-dependent manner
- apoptosis ([6]; LP-1 cells, TH-302 5 μM): induced apoptosis
- anti-apoptotic Mcl-1 [1]: decreased
- expression of anti-apoptotic Bcl-2 and Bcl-xL [1]: decreased
- pro-apoptotic BH-3 member Noxa and cleavage of BID [1]: induced
- platelet count ([7]; one AML patient started at 120 mg/m^2/day): gradually improving
- peripheral blast count ([7]; one AML patient started at 120 mg/m^2/day, after each cycle): decreased
- disease response ([7]; one AML patient, 240 mg/m^2/day, after cycle 1): stable disease
- disease response ([7]; two AML patients, 120 mg/m^2/day, iv daily for 5 days of 21 day cycle): stable disease
- disease response ([8]; 170 mg/m^2/day, bone marrow biopsy after cycle 1): partial response
- disease response ([8]; 240 mg/m^2/day, after cycle 1): stable disease
- disease response ([8]; 330 mg/m^2/day, after cycle 1): stable disease
- microvessel density (MVD) in the bone marrow vs vehicle-treated mice ([9]; 12.5 mg/kg): 19 % decrease
- paraprotein secretion vs vehicle-treated mice ([9]; 12.5 mg/kg): 32 % decrease
- multiple myeloma cell apoptosis vs vehicle-treated mice ([9]; 12.5 mg/kg): 2.5 fold
- microvessel density (MVD) in the bone marrow vs vehicle-treated mice ([9]; 25 mg/kg): 20 % decrease
- paraprotein secretion vs vehicle-treated mice ([9]; 25 mg/kg): 77 % decrease
- multiple myeloma cell apoptosis vs vehicle-treated mice ([9]; 25 mg/kg): 2.1 fold
- microvessel density (MVD) in the bone marrow vs vehicle-treated mice ([9]; 50 mg/kg): 26 % decrease
- paraprotein secretion vs vehicle-treated mice ([9]; 50 mg/kg): 54 % decrease
- multiple myeloma cell apoptosis vs vehicle-treated mice ([9]; 50 mg/kg): 3.1 fold
- anti-apoptotic proteins BCL-2 and BCL-xL [10]: down-regulation
- expression of cleaved proapoptotic protein caspase-3, 8, 9 and PARP [10]: up-regulation
- toxicity in terms of body weight, HGB, RBC, WBC, HCT and MVD [11]: no substantial toxicity
- VEGFa secretion [12]: reduced; also recorded: significantly decreased
- fraction of apoptotic cells ([13]; O2 concentration reduced to 0%): 70-75%
- threshold of activating TH-302 ([13]; gas mixtures 0%, 1%, 1.25%, 1.5%, 2%, 3%, 20% O2): < 1.5 % O2
- cell cycle arrest [14]: induced Go/G1 cell cycle arrest

Reference: patent publication US20130296273A1, “TREATMENT OF BLOOD CANCER” (Threshold Pharmaceuticals, Inc., priority 2010, published 2013)
